In patent publication US20250179059A1 (The Regents of the University of California, priority 2021, published 2025):

What was measured:
[1] = target: T1, human BRD4 bromodomain II (Homo sapiens, UniProt O60885); experiment: Bromodomain binding assay (AlphaScreen), BRD4 BDII; details: AlphaScreen assay, Table C2; read-out: BRD4 BDII IC50
T1 construct: human BRD4 bromodomain II [based on Genbank NM_058243, residues 349-460]; host or cells: E. coli
In short: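 Compounds (10-point, 3-fold series) were preincubated 30 min at room temperature with E. coli-expressed N-terminal His6-tagged BRD4 BDII (residues 349-460) or BDI (residues 44-170) in 50 mM HEPES pH 7.5, 100 mM NaCl, 0.05% CHAPS, 0.1% BSA, 1% DMSO. Displacement of biotinylated tetra-acetylated H4 1-21 peptide was read by AlphaScreen; IC50 from curve fitting.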

[2] = test system: human SKM-1 acute myeloid leukemia cells; experiment: SKM-1 antiproliferation cell-based assay (ATPlite); details: Homo sapiens, SKM-1, 96 h, SKM-1 antiproliferation assay, 4 days, Table C2
In short: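 Log-phase cells in RPMI 1640/15% FBS were seeded at 34722 cells/mL and exposed for 4 days to nine-concentration DMSO serial dilutions in triplicate. Viability was read as ATP luminescence (ATPlite 1step), and IC50 values came from variable-slope non-linear regression.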

Row | IC50 [1] | GI50 [2] | Compound
1 | 10 to 100 nM | 30 to 300 nM | CN1CCN(c2ccc(-c3cccc(-c4ccnc(N5CC6(CNC6)C5)c4)c3O)cc2F)C1=O [Example 322, 1-(3′-(2-(2,6-diazaspiro[3.3]heptan-2-yl)pyridin-4-yl)-3-fluoro-2′-hydroxy-[1,1′-biphenyl]-4-yl)-3-methylimidazolidin-2-one]
2 | 1 to 10 nM | 30 to 300 nM | CN1CCN(c2ccc(-c3cccc(-c4ccnc(N5CC6(CNC6)C5)c4)c3O)cc2Cl)C1=O [Example 323, 1-(3′-(2-(2,6-diazaspiro[3.3]heptan-2-yl)pyridin-4-yl)-3-chloro-2′-hydroxy-[1,1′-biphenyl]-4-yl)-3-methylimidazolidin-2-one]
3 | 10 to 100 nM | 300 to 3000 nM | O=C1CCCN1c1ccc(-c2cc(F)cc(-c3ccnc(N4CC5(CNC5)C4)c3)c2O)cc1Cl [Example 324, 1-(3′-(2-(2,6-diazaspiro[3.3]heptan-2-yl)pyridin-4-yl)-3-chloro-5′-fluoro-2′-hydroxy-[1,1′-biphenyl]-4-yl)pyrrolidin-2-one]
4 | 1 to 10 nM | 30 to 300 nM | CN1CCN(c2ccc(-c3cccc(-c4cncc(N5CCCC(N)C5)c4)c3O)cc2Cl)C1=O (centres unmarked) [Example 325, 1-(3′-(5-(3-aminopiperidin-1-yl)pyridin-3-yl)-3-chloro-2′-hydroxy-[1,1′-biphenyl]-4-yl)-3-methylimidazolidin-2-one]
5 | 10 to 100 nM | 300 to 3000 nM | CN1CCN(c2ccc(-c3cccc(-c4cc(CN)cc(N5CCNCC5)c4)c3O)cc2Cl)C1=O [Example 326, 1-(3″-(aminomethyl)-3-chloro-2′-hydroxy-5″-(piperazin-1-yl)-[1,1′:3′,1″-terphenyl]-4-yl)-3-methylimidazolidin-2-one]
6 | 1 to 10 nM | 30 to 300 nM | CC(=O)NCc1cc(-c2cccc(-c3ccc(N4CCN(C)C4=O)c(Cl)c3)c2O)cc(N2CCNCC2)c1 [Example 327, N-((3″-chloro-2′-hydroxy-4″-(3-methyl-2-oxoimidazolidin-1-yl)-5-(piperazin-1-yl)-[1,1′:3′,1″-terphenyl]-3-yl)methyl)acetamide]
7 | 1 to 10 nM | 300 to 3000 nM | CC1CCN(c2ccc(-c3cccc(-c4ccnc(N5CCNCC5)c4)c3O)cc2Cl)C1=O (centres unmarked) [Example 328, 1-(3-chloro-2′-hydroxy-3′-(2-(piperazin-1-yl)pyridin-4-yl)-[1,1′-biphenyl]-4-yl)-3-methylpyrrolidin-2-one]
8 | > 100 nM | 300 to 3000 nM | CC1(C)CCN(c2ccc(-c3cccc(-c4ccnc(N5CCNCC5)c4)c3O)cc2Cl)C1=O [Example 329, 1-(3-chloro-2′-hydroxy-3′-(2-(piperazin-1-yl)pyridin-4-yl)-[1,1′-biphenyl]-4-yl)-3,3-dimethylpyrrolidin-2-one]
9 | 1 to 10 nM | 30 to 300 nM | CC(=O)Nc1ccc(-c2cccc(-c3ccc(N4CCN(C)C4=O)c(Cl)c3)c2O)cc1N1CCNCC1 [Example 330, N-(3″-chloro-2′-hydroxy-4″-(3-methyl-2-oxoimidazolidin-1-yl)-3-(piperazin-1-yl)-[1,1′:3′,1″-terphenyl]-4-yl)acetamide]
10 | 1 to 10 nM | 30 to 300 nM | CN1CCN(c2ccc(-c3cccc(-c4cc(C#N)cc(N5CCNCC5)c4)c3O)cc2Cl)C1=O [Example 331, 3″-chloro-2′-hydroxy-4″-(3-methyl-2-oxoimidazolidin-1-yl)-5-(piperazin-1-yl)-[1,1′:3′,1″-terphenyl]-3-carbonitrile]
11 | 10 to 100 nM | ≥ 3000 nM | CN1CCN(c2ccc(-c3cc(C(F)(F)F)cc(-c4ccnc(N5CCNCC5)c4)c3O)cc2Cl)C1=O [Example 332, 1-(3-chloro-2′-hydroxy-3′-(2-(piperazin-1-yl)pyridin-4-yl)-5′-(trifluoromethyl)-[1,1′-biphenyl]-4-yl)-3-methylimidazolidin-2-one]
12 | 1 to 10 nM | 30 to 300 nM | CC(=O)Nc1ccc(-c2cccc(-c3cc(NCCO)nc(N4CCNCC4)c3)c2O)cc1F [Example 333, N-(3-fluoro-2′-hydroxy-3′-(2-((2-hydroxyethyl)amino)-6-(piperazin-1-yl)pyridin-4-yl)-[1,1′-biphenyl]-4-yl)acetamide]
13 | 10 to 100 nM | 300 to 3000 nM | CN1CCN(c2ccc(-c3cccc(-c4cncc(N5CC6(CNC6)C5)c4)c3O)cc2F)C1=O [Example 334, 1-(3′-(5-(2,6-diazaspiro[3.3]heptan-2-yl)pyridin-3-yl)-3-fluoro-2′-hydroxy-[1,1′-biphenyl]-4-yl)-3-methylimidazolidin-2-one]
14 | 1 to 10 nM | 300 to 3000 nM | CN1CCN(c2ccc(-c3cccc(-c4cncc(N5CC6(CNC6)C5)c4)c3O)cc2Cl)C1=O [Example 335, 1-(3′-(5-(2,6-diazaspiro[3.3]heptan-2-yl)pyridin-3-yl)-3-chloro-2′-hydroxy-[1,1′-biphenyl]-4-yl)-3-methylimidazolidin-2-one]
15 | 10 to 100 nM | 300 to 3000 nM | CC(=O)Nc1ccc(-c2cccc(-c3ccc(C(F)(F)F)c(N4CCNCC4)c3)c2O)cc1F [Example 336, N-(3-fluoro-2′-hydroxy-3″-(piperazin-1-yl)-4″-(trifluoromethyl)-[1,1′:3′,1″-terphenyl]-4-yl)acetamide acetate]
16 | 1 to 10 nM | 30 to 300 nM | Cc1cc(-c2cc(C)nc(N3CCNCC3)c2)c(O)c(-c2ccc(N3CCN(C)C3=O)c(Cl)c2)c1 [Example 337, 1-(3-chloro-2′-hydroxy-5′-methyl-3′-(2-methyl-6-(piperazin-1-yl)pyridin-4-yl)-[1,1′-biphenyl]-4-yl)-3-methylimidazolidin-2-one]
17 | 1 to 10 nM | 30 to 300 nM | Cc1cc(-c2cccc(-c3ccc(N4CCN(C)C4=O)c(Cl)c3)c2O)cc(N2CCNCC2)n1 [Example 338, 1-(3-chloro-2′-hydroxy-3′-(2-methyl-6-(piperazin-1-yl)pyridin-4-yl)-[1,1′-biphenyl]-4-yl)-3-methylimidazolidin-2-one]
18 | 10 to 100 nM | 300 to 3000 nM | COc1cc(-c2cccc(-c3ccc(NC(C)=O)c(F)c3)c2O)cc(N2CCNCC2)n1 [Example 339, N-(3-fluoro-2′-hydroxy-3′-(2-methoxy-6-(piperazin-1-yl)pyridin-4-yl)-[1,1′-biphenyl]-4-yl)acetamide]
19 | > 100 nM | 300 to 3000 nM | CC1CC(=O)N(c2ccc(-c3cccc(-c4ccnc(N5CCNCC5)c4)c3O)cc2Cl)C1 (centres unmarked) [Example 340, 1-(3-chloro-2′-hydroxy-3′-(2-(piperazin-1-yl)pyridin-4-yl)-[1,1′-biphenyl]-4-yl)-4-methylpyrrolidin-2-one]
20 | 10 to 100 nM | 300 to 3000 nM | O=C1N(c2ccc(-c3cccc(-c4ccnc(N5CCNCC5)c4)c3O)cc2Cl)CCC12CC2 [Example 341, 5-(3-chloro-2′-hydroxy-3′-(2-(piperazin-1-yl)pyridin-4-yl)-[1,1′-biphenyl]-4-yl)-5-azaspiro[2.4]heptan-4-one]
21 | 1 to 10 nM | 30 to 300 nM | CN1CCN(c2ccc(-c3cccc(-c4cc(N5CCNCC5)c(=O)n(C)c4)c3O)cc2Cl)C1=O [Example 342, 5-(3′-chloro-2-hydroxy-4′-(3-methyl-2-oxoimidazolidin-1-yl)-[1,1′-biphenyl]-3-yl)-1-methyl-3-(piperazin-1-yl)pyridin-2(1H)-one]
22 | 1 to 10 nM | 30 to 300 nM | CN1CCN(c2ccc(-c3cccc(-c4cnnc(N5CCNCC5)c4)c3O)cc2Cl)C1=O [Example 343, 1-(3-chloro-2′-hydroxy-3′-(6-(piperazin-1-yl)pyridazin-4-yl)-[1,1′-biphenyl]-4-yl)-3-methylimidazolidin-2-one]
23 | 10 to 100 nM | 30 to 300 nM | CN1CCN(c2ccc(-c3cccc(-c4cc(-c5ccccc5)nc(N5CCNCC5)c4)c3O)cc2Cl)C1=O [Example 344, 1-(3-chloro-2′-hydroxy-3′-(2-phenyl-6-(piperazin-1-yl)pyridin-4-yl)-[1,1′-biphenyl]-4-yl)-3-methylimidazolidin-2-one]
24 | > 100 nM | 300 to 3000 nM | CCC1CCN(c2ccc(-c3cccc(-c4ccnc(N5CCNCC5)c4)c3O)cc2Cl)C1=O (centres unmarked) [Example 345, 1-(3-chloro-2′-hydroxy-3′-(2-(piperazin-1-yl)pyridin-4-yl)-[1,1′-biphenyl]-4-yl)-3-ethylpyrrolidin-2-one]
25 | > 100 nM | 300 to 3000 nM | CCN1CCN(c2ccc(-c3cccc(-c4ccnc(N5CCNCC5)c4)c3O)cc2Cl)C1=O [Example 346, 1-(3-chloro-2′-hydroxy-3′-(2-(piperazin-1-yl)pyridin-4-yl)-[1,1′-biphenyl]-4-yl)-3-ethylimidazolidin-2-one]
26 | 10 to 100 nM | 300 to 3000 nM | CN1CCN(c2ccc(-c3cc(F)cc(-c4ccnc(N(C)CCN)c4)c3O)cc2Cl)C1=O [Example 347, 1-(3′-(2-((2-aminoethyl)(methyl)amino)pyridin-4-yl)-3-chloro-5′-fluoro-2′-hydroxy-[1,1′-biphenyl]-4-yl)-3-methylimidazolidin-2-one]
27 | 1 to 10 nM | 30 to 300 nM | CC(=O)Nc1ccc(-c2cccc(-c3cc(N)nc(N4CCNCC4)c3)c2O)cc1F [Example 348, N-(3′-(2-amino-6-(piperazin-1-yl)pyridin-4-yl)-3-fluoro-2′-hydroxy-[1,1′-biphenyl]-4-yl)acetamide]
28 | 10 to 100 nM | 300 to 3000 nM | CNC(=O)c1cc(-c2cccc(-c3ccc(NC(C)=O)c(F)c3)c2O)cc(N2CCNCC2)n1 [Example 349, 4-(4′-acetamido-3′-fluoro-2-hydroxy-[1,1′-biphenyl]-3-yl)-N-methyl-6-(piperazin-1-yl)picolinamide]
